Assay results from PubChem BioAssay AID270 (DTP/NCI, 2004).
Where “and” joins values, the source holds several entries; their conditions need not be identical. Equal values may be shown once. Results filed as inconclusive are left out.

Test system: BDF1 mice, s.c. Lewis lung carcinoma, T/C %
Assay: NCI In Vivo Anticancer Drug Screen. Data for tumor model Lewis Lung Carcinoma (subcutaneous) in B6D2F1 (BDF1) mice
Outline: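 The value reflects a ratio in which the treated cohort's survival time or tumour size is compared against mice receiving only vehicle.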

[1] = endpoint: mean tumor weight, dose: 25.0 mg/kg/injection, schedule: Q01DX011 (sc), vehicle: steriod suspending solution, higher = larger tumour
[2] = endpoint: mean tumor weight, dose: 50.0 mg/kg/injection, schedule: Q01DX011 (sc), vehicle: steriod suspending solution, higher = larger tumour
[3] = endpoint: mean tumor weight, dose: 100.0 mg/kg/injection, schedule: Q01DX011 (sc), vehicle: steriod suspending solution, higher = larger tumour

## Cc1ncc([N+](=O)[O-])n1CCO
endpoint: median survival time, dose: 37.5 mg/kg/injection, schedule: Q01DX009 (ip), vehicle: Klucel (hydroxypropylcellulose) (HPC), higher = longer survival
  T/C: 98 % of control
endpoint: median survival time, dose: 37.5 mg/kg/injection, schedule: Q04DX003 (ip), vehicle: Klucel (hydroxypropylcellulose) (HPC), higher = longer survival
  T/C: 92 % of control
endpoint: median survival time, dose: 75.0 mg/kg/injection, schedule: Q01DX009 (ip), vehicle: Klucel (hydroxypropylcellulose) (HPC), higher = longer survival
  T/C: 106 % of control
endpoint: median survival time, dose: 75.0 mg/kg/injection, schedule: Q04DX003 (ip), vehicle: Klucel (hydroxypropylcellulose) (HPC), higher = longer survival
  T/C: 97 % of control
endpoint: median survival time, dose: 150.0 mg/kg/injection, schedule: Q01DX009 (ip), vehicle: Klucel (hydroxypropylcellulose) (HPC), higher = longer survival
  T/C: 96 % of control
endpoint: median survival time, dose: 150.0 mg/kg/injection, schedule: Q04DX003 (ip), vehicle: Klucel (hydroxypropylcellulose) (HPC), higher = longer survival
  T/C: 96 % of control
endpoint: median survival time, dose: 300.0 mg/kg/injection, schedule: Q01DX009 (ip), vehicle: Klucel (hydroxypropylcellulose) (HPC), higher = longer survival
  T/C: 97 % of control
endpoint: median survival time, dose: 300.0 mg/kg/injection, schedule: Q04DX003 (ip), vehicle: Klucel (hydroxypropylcellulose) (HPC), higher = longer survival
  T/C: 100 % of control
endpoint: median survival time, dose: 600.0 mg/kg/injection, schedule: Q01DX009 (ip), vehicle: Klucel (hydroxypropylcellulose) (HPC), higher = longer survival
  T/C: 105 % of control
endpoint: median survival time, dose: 600.0 mg/kg/injection, schedule: Q04DX003 (ip), vehicle: Klucel (hydroxypropylcellulose) (HPC), higher = longer survival
  T/C: 91 % of control

## Nc1cc2nc3ccccc3sc-2cc1=O
endpoint: median survival time, dose: 50.0 mg/kg/injection, schedule: Q01DX009 (ip), vehicle: saline with Tween-80, higher = longer survival
  T/C: 104 % of control
endpoint: median survival time, dose: 100.0 mg/kg/injection, schedule: Q01DX009 (ip), vehicle: saline with Tween-80, higher = longer survival
  T/C: 90 % of control

## O=P(O)(NCCCl)NCCCl
endpoint: median survival time, dose: 12.5 mg/kg/injection, schedule: Q01DX001 (ip), vehicle: saline, higher = longer survival
  T/C: 114 % of control and 115 % of control
endpoint: median survival time, dose: 25.0 mg/kg/injection, schedule: Q01DX001 (ip), vehicle: saline, higher = longer survival
  T/C: 113 % of control and 114 % of control
endpoint: median survival time, dose: 100.0 mg/kg/injection, schedule: Q01DX001 (ip), vehicle: saline, higher = longer survival
  T/C: 200 % of control and 243 % of control

## CC/C(=C(/CC)c1ccc(O)cc1)c1ccc(O)cc1
endpoint: mean tumor weight, dose: 12.5 mg/kg/injection, schedule: Q01DX011 (sc), vehicle: steriod suspending solution, higher = larger tumour
  T/C: 38 % of control
[1]
  T/C: 28 % of control
[2]
  T/C: 17 % of control
[3]
  T/C: 21 % of control
endpoint: median survival time, dose: 25.0 mg/kg/injection, schedule: Q01DX009 (ip), vehicle: Klucel (hydroxypropylcellulose) (HPC), higher = longer survival
  T/C: 120 % of control
endpoint: median survival time, dose: 50.0 mg/kg/injection, schedule: Q01DX009 (ip), vehicle: Klucel (hydroxypropylcellulose) (HPC), higher = longer survival
  T/C: 106 % of control
endpoint: median survival time, dose: 100.0 mg/kg/injection, schedule: Q01DX009 (ip), vehicle: Klucel (hydroxypropylcellulose) (HPC), higher = longer survival
  T/C: 113 % of control
endpoint: median survival time, dose: 200.0 mg/kg/injection, schedule: Q01DX009 (ip), vehicle: Klucel (hydroxypropylcellulose) (HPC), higher = longer survival
  T/C: 124 % of control

## COc1cccc(/C=N\NC(=O)C(C)SC(C)C(=O)N/N=C/c2cccc(OC)c2)c1 (centres undefined)
endpoint: mean tumor weight, dose: 25.0 mg/kg/injection, schedule: Q01DX011 (ip), vehicle: carboxymethylcellulose (CMC), higher = larger tumour
  T/C: 82 % of control
endpoint: mean tumor weight, dose: 50.0 mg/kg/injection, schedule: Q01DX011 (ip), vehicle: carboxymethylcellulose (CMC), higher = larger tumour
  T/C: 113 % of control
endpoint: mean tumor weight, dose: 100.0 mg/kg/injection, schedule: Q01DX011 (ip), vehicle: carboxymethylcellulose (CMC), higher = larger tumour
  T/C: 67 % of control
endpoint: mean tumor weight, dose: 200.0 mg/kg/injection, schedule: Q01DX011 (ip), vehicle: carboxymethylcellulose (CMC), higher = larger tumour
  T/C: 101 % of control
endpoint: mean tumor weight, dose: 400.0 mg/kg/injection, schedule: Q01DX011 (ip), vehicle: carboxymethylcellulose (CMC), higher = larger tumour
  T/C: 99 % of control
endpoint: mean tumor weight, dose: 600.0 mg/kg/injection, schedule: Q01DX011 (ip), vehicle: carboxymethylcellulose (CMC), higher = larger tumour
  T/C: 85 % of control

## Cn1c(=O)[nH]c2nncnc2c1=O
endpoint: median survival time, dose: 8.0 mg/kg/injection, schedule: Q01DX009 (ip), vehicle: water, higher = longer survival
  T/C: 108 % of control
endpoint: median survival time, dose: 16.0 mg/kg/injection, schedule: Q01DX009 (ip), vehicle: water, higher = longer survival
  T/C: 86 % of control
endpoint: median survival time, dose: 37.5 micrograms/kg/injection, schedule: Q01DX009 (ip), vehicle: water, higher = longer survival
  T/C: 123 % of control
endpoint: median survival time, dose: 75.0 micrograms/kg/injection, schedule: Q01DX009 (ip), vehicle: water, higher = longer survival
  T/C: 123 % of control
endpoint: median survival time, dose: 150.0 micrograms/kg/injection, schedule: Q01DX009 (ip), vehicle: water, higher = longer survival
  T/C: 111 % of control
endpoint: median survival time, dose: 300.0 micrograms/kg/injection, schedule: Q01DX009 (ip), vehicle: water, higher = longer survival
  T/C: 123 % of control

## COc1c(OC)c(O)c2c(=O)cc(-c3ccc(O)cc3)oc2c1OC
[1]
  T/C: 100 % of control
[2]
  T/C: 81 % of control
[3]
  T/C: 85 % of control
endpoint: mean tumor weight, dose: 200.0 mg/kg/injection, schedule: Q01DX011 (sc), vehicle: steriod suspending solution, higher = larger tumour
  T/C: 68 % of control
